According to patent publication US6255317A, “Cholesterol biosynthesis inhibitors” (Hanwha Chemical Corporation, priority 1998, dated 2001):

Biological target: T1, sterol 14-reductase (Rattus norvegicus, UniProt A0ACM8Q6X4)
T1 construct: to give a microsome which was used as an enzyme source of sterol 14-reductase; from tissue
T1 sequence (A0ACM8Q6X4 1-418): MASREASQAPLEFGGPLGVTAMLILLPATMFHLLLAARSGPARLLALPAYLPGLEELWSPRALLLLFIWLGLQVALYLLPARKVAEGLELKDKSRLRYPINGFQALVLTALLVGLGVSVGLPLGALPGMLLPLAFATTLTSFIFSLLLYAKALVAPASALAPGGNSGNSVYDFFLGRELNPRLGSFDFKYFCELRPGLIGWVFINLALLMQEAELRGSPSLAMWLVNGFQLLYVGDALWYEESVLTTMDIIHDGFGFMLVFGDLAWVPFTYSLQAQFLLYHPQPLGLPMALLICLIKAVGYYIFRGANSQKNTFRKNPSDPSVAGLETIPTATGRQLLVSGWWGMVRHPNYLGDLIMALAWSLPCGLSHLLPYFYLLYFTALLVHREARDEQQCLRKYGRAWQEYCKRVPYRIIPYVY
Experiment: Sterol 14-reductase assay with rat liver microsomes (substrate 4,4-dimethyl-5α-cholesta-7,14-dien-3β-ol, GLC)
Assay type: biochemical, Sprague-Dawley rats
Settings: not given

For `COc1cc2c(cc1OC)-c1c(C)c3ccc(OC)c(OC)c3c[n+]1CC2`, which “inhibition of sterol 14-reductase (in words)” value is on record?
The value was “effectively inhibit”.

Same assay, conditions: dissolved in DMSO; read-out: concentration of active ingredient in the assay at which 50% of inhibitory effect was observed (sterol 14-reductase)

For `COc1cc2c(cc1OC)-c1c(C)c3ccc(OC)c(OC)c3c[n+]1CC2`, which IC50 is on record?
Its IC50 is 40000 to 50000 µM.

Same assay, conditions: read-out: Enzyme Activity (relative in vitro activity for sterol 14-reductase, IC50 class)

Which IC50 does the source give for `COc1ccc2c(C)c3[n+](cc2c1OC)CCc1cc2c(cc1-3)OCO2` [Compound No. 1, 13-Methylberberine] here?
Its IC50 is 10 to 100 µM.

Which IC50 does the source give for `COc1cc2c(cc1OC)-c1c(CC(=O)O)c3ccc(OC)c(OC)c3c[n+]1CC2` [Compound No. 21, 13-Carboxymethylpalmatine] here?
The IC50 was at least 100 µM.

`COc1ccc2c(c1OC)C(CC(C)=O)N1CCc3cc4c(cc3C1=C2)OCO4` (stereo not drawn) [Compound No. 26, 8-Acetonyldihydroberberine] was tested. Which IC50 did it give?
The IC50 was at least 100 µM.

How did the IC50 turn out when `COc1cc2c(cc1OC)-c1c(CCC3OCCCO3)c3ccc(OC)c(OC)c3c[n+]1CC2` [Compound No. 18, 13-(1,3-dioxane-2-yl)ethylpalmatine] was run?
Its IC50 is at least 100 µM.

`CCC1c2c(ccc(OC)c2OC)C=C2c3cc(OC)c(OC)cc3CCN21` (stereo not drawn) [Compound No. 34, 8-Ethyldihydropalmatine] was tested. Which IC50 did it give?
Its IC50 is at least 100 µM.

How did the IC50 turn out when `CCOc1cc2c(cc1OCC)C1=C(CC)c3ccc(OCC)c(OCC)c3C(CC(=O)C(C)C)N1CC2` (stereo not drawn) [Compound No. 45, 8-(3-methylbutan-2-one-1-yl)-13-ethyl-2,3,9,10-tetra ethoxydihydroprotoberberine] was run?
Its IC50 is 10 to 100 µM.

With `Cc1c2[n+](cc3c(O)c(O)ccc13)CCc1cc(O)c(O)cc1-2` [Compound No. 4, 2,3,9,10-Tetrahydroxy-13-methylberberine] as the molecule, how does the IC50 read?
The IC50 was 10 to 100 µM.

`CCCCc1c2[n+](cc3c(OC)c(OC)ccc13)CCc1cc(OC)c(OC)cc1-2` [Compound No. 12, 13-n-butylpalmatine] was tested. Which IC50 did it give?
The IC50 was 10 to 100 µM.

With `CCC1=C2c3cc(OC)c(OC)cc3CCN2C(C2CCCC2=O)c2c1ccc(OC)c2OC` (stereo not drawn) [Compound No. 42, 8-(cyclopentanon-2-yl)-13-ethyldihydropalmatine] as the molecule, how does the IC50 read?
Its IC50 is at least 100 µM.

How did the IC50 turn out when `CCCCOc1cc2c(cc1OCCCC)-c1cc3ccc(OCCCC)c(OCCCC)c3c[n+]1CC2` [Compound No. 17, 2,3,9,10-Tetra-n-butoxyprotoberberine] was run?
The IC50 was 10 to 100 µM.

With `CCC1=C2c3cc(OC)c(OC)cc3CCN2C(C)c2c1ccc(OC)c2OC` (stereo not drawn) [Compound No. 48, 8-Methyl-13-ethyldihydropalmatine] as the molecule, how does the IC50 read?
Its IC50 is at least 100 µM.

Which IC50 does the source give for `CCCC1c2c(ccc(OC)c2OC)C=C2c3cc4c(cc3CCN21)OCO4` (stereo not drawn) [Compound No. 29, 8-n-propyldiydroberberine] here?
Its IC50 is at least 100 µM.

`CCc1c2[n+](cc3c(NCCO)c(OC)ccc13)CCc1cc(OC)c(OC)cc1-2` [Compound No. 25, 9-Hydroxyethylamino-13-ethylberberine] was tested. Which IC50 did it give?
Its IC50 is 10 to 100 µM.

Which IC50 does the source give for `COc1ccc2c(C3CCOC3=O)c3[n+](cc2c1OC)CCc1cc2c(cc1-3)OCO2` (stereo not drawn) [Compound No. 23, 13-α-(γ-lactonyl)berberine] here?
Its IC50 is at least 100 µM.

How did the IC50 turn out when `CCCc1c2[n+](cc3c(OC)c(OC)ccc13)CCc1cc(OC)c(OC)cc1-2` [Compound No. 11, 13-n-propylpalmatine] was run?
Its IC50 is 10 to 100 µM.

How did the IC50 turn out when `CCc1c2[n+](cc3c(O)c(O)ccc13)CCc1cc(O)c(O)cc1-2` [Compound No. 7, 2,3,9,10-Tetrahydroxy-13-ethylberberine] was run?
The IC50 was 10 to 100 µM.

How did the IC50 turn out when `CCC1=C2c3cc(OC)c(OC)cc3CCN2C(CC)c2c1ccc(OC)c2OC` (stereo not drawn) [Compound No. 49, 8-Ethyl-13-ethyldihydropalmatine] was run?
The IC50 was at least 100 µM.

With `CCCCC1c2c(ccc(OC)c2OC)C=C2c3cc4c(cc3CCN21)OCO4` (stereo not drawn) [Compound No. 30, 8-n-butyldihydroberberine] as the molecule, how does the IC50 read?
The IC50 was at least 100 µM.

With `CCC1=C2c3cc(OC)c(OC)cc3CCN2C(C2CCCCC2=O)c2c1ccc(OC)c2OC` (stereo not drawn) [Compound No. 43, 8-(cyclohexanon-2-yl)-13-ethyldihydropalmatine] as the molecule, how does the IC50 read?
The IC50 was at least 100 µM.

How did the IC50 turn out when `COc1ccc2c(c1OC)C(C)N1CCc3cc4c(cc3C1=C2)OCO4` (stereo not drawn) [Compound No. 27, 8-Methyldihydroberberine] was run?
The IC50 was at least 100 µM.

With `COC(=O)C(C)c1c2[n+](cc3c(OC)c(OC)ccc13)CCc1cc3c(cc1-2)OCO3` (stereo not drawn) [Compound No. 22, 13-(1-methoxycarbonylethyl)berberine] as the molecule, how does the IC50 read?
The IC50 was at least 100 µM.

Which IC50 does the source give for `CCOC(=O)c1c2[n+](cc3c(OC)c(OC)ccc13)CCc1cc(OC)c(OC)cc1-2` [Compound No. 19, 13-Ethoxycrbonylpalmatine] here?
Its IC50 is at least 100 µM.
